From the supplement of paper PMC11208160

Assay: recombinant UMI read abundance after kanamycin selection (control-corrected) (log10(CPM+1)); higher = more efficient recombination; extreme values may be limits of the assay; sequences stand for … in AGTGCAGAGAAAATCGGCCAGTTTTCTCTGCCTGCAGTCCGCATGCCGTGGGACCCCTTGGGTTCTAACCTGTTGCCTAGATTTATGCAGCGGACTGCCTTTCTCCCAAAGTGATAAACCGG…AGGTTGGTTTCACT; site = the 11-nt donor
Procedure, shortened: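 Sequenced counts of recombinant UMIs were turned into CPM, averaged across replicates and scaled with control-derived factors. The reported figure is log10(CPM+1). Those UMIs, each 12 nt long, tagged donor and donor-binding-loop pairs on a plasmid with a promoterless kanamycin gene, screened as a pool in Escherichia coli with IPTG (0.07 mM) plus kanamycin or without selection.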
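Also: IS621 bridge recombinase in Escherichia coli cells against a fixed T5 target plasmid.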

In order of falling “recombinant UMI read abundance (log10)” value:
1. CAGTTGTCATGGACCGGTTTTCCCGGTAATCCGTATTTGCG (site CAGTTGTCTCG)  3.14
2. AAGGGATCATGGACCGGTTTTCCCGGTAATCCGTATTTGTT (site AAGGGATCTAA)  2.95
3. CGGGAGTCATGGACCGGTTTTCCCGGTAATCCGTATTTGGC (site CGGGAGTCTGC)  2.76
4. AGGAAGACATGGACCGGTTTTCCCGGTAATCCGTATTTGAC (site AGGAAGACTGT)  2.64
5. TAGGAATCATGGACCGGTTTTCCCGGTAATCCGTATTTGCT (site TAGGAATCTAG)  2.58
6. GAATGGTCATGGACCGGTTTTCCCGGTAATCCGTATTTGCA (site GAATGGTCTTG)  2.38
7. AAGTTGTCATGGACCGGTTTTCCCGGTAATCCGTATTTGTC (site AAGTTGTCTGA)  2.09
8. CGGCGCACATGGACCGGTTTTCCCGGTAATCCGTATTTGTA (site CGGCGCACTTA)  1.57
9. GTAGATACATGGACCGGTTTTCCCGGTAATCCGTATTTGAC (site GTAGGTACTGT)  1.38
10. GTGCTCTCATGGACCGGTTTTCCCGGTAATCCGTATTTGTG (site GTGCTCTCTCA)  1.28
11. AGTAGCACATGGACCGGTTTTCCCGGTAATCCGTATTTGAG (site AGTAGCACTCT)  1.24
12. CCCTAGACATGGACCGGTTTTCCCGGTAATCCGTATTTGCT (site CCCTAGACTAG)  0.956
13. CTAGTGCCATGGACCGGTTTTCCCGGTAATCCGTATTTGAC (site CTAGTGCCTGT)  0.95
14. GAATGCACATGGACCGGTTTTCCCGGTAATCCGTATTTGTA (site GCATGCACTTA)  0.691
15. CACATGGCATGGACCGGTTTTCCCGGTAATCCGTATTTGGA (site CACGTGGCTTC)  0.414
16. GGCATTCCATGGACCGGTTTTCCCGGTAATCCGTATTTGAA (site GGCACTCCTTT)  0.0138
17. GAATGGCCATGGACCGGTTTTCCCGGTAATCCGTATTTGAA (site GAATGGCCTTG)  0.0104
18. AATTATGCATGGACCGGTTTTCCCGGTAATCCGTATTTGGG (site AATTATGCTAC)  0.00898
19. CCCGGTCCATGGACCGGTTTTCCCGGTAATCCGTATTTGAA (site CCCGGTCCTTC)  0.00874
20. CTTCTACCATGGACCGGTTTTCCCGGTAATCCGTATTTGCT (site CTCCTACCTAG)  0.00753
21. TGAGAACCATGGACCGGTTTTCCCGGTAATCCGTATTTGAT (site GACATTGCTCA)  0.0061
22. GTAGATACATGGACCGGTTTTCCCGGTAATCCGTATTTGAC (site GTAGCTACTGT)  0
23. ACACATCCATGGACCGGTTTTCCCGGTAATCCGTATTTGAC (site ACACATCCTGA)  0
24. CGGAATCCATGGACCGGTTTTCCCGGTAATCCGTATTTGCA (site CGGAATCCTAA)  0
25. GGTAGAACATGGACCGGTTTTCCCGGTAATCCGTATTTGGC (site GTTAGAACTGC)  0
26. GGCAACCCATGGACCGGTTTTCCCGGTAATCCGTATTTGAA (site GGCAAACCTTT)  0
27. CGCTCGACATGGACCGGTTTTCCCGGTAATCCGTATTTGTT (site CGCTCGACTAA)  0
28. GAGTGGCCATGGACCGGTTTTCCCGGTAATCCGTATTTGCA (site GATTGGCCTTG)  0
29. GCTTGCCCATGGACCGGTTTTCCCGGTAATCCGTATTTGGT (site GCTTGCCCTAG)  0
30. CCATCATCATGGACCGGTTTTCCCGGTAATCCGTATTTGCA (site CGATCATCTAG)  0
31. TCCAATTCATGGACCGGTTTTCCCGGTAATCCGTATTTGCC (site TCCAATACTGG)  0
32. GAGTGGCCATGGACCGGTTTTCCCGGTAATCCGTATTTGCA (site GAATGGCCTTG)  0
33. TCCTAGCCATGGACCGGTTTTCCCGGTAATCCGTATTTGCC (site ACCTAGCCTGG)  0
34. ACACATCCATGGACCGGTTTTCCCGGTAATCCGTATTTGGC (site ACACATCCTGA)  0
35. TCATACTCATGGACCGGTTTTCCCGGTAATCCGTATTTGCA (site TCATACTCTGG)  0
36. GGAGCACCATGGACCGGTTTTCCCGGTAATCCGTATTTGCA (site GGCGCACCTTG)  0
37. GGGGCACCATGGACCGGTTTTCCCGGTAATCCGTATTTGCA (site GGTGCACCTTG)  0
